Results as given in US9359352B2, “Substituted benzimidazoles as PI3 kinase inhibitors” (Intellikine LLC, priority 2010, dated 2016).

Key:
Format in all cases: biochemical
PI3K γ = target: T1, PI3K γ (Homo sapiens, UniProt P48736); assay: PI 3-Kinase HTRF inhibition assay, PI3K γ; details: in vitro
T1 construct: purchased Upstate

mTOR C = target: T2, mTOR C (Homo sapiens, UniProt P42345); assay: mTOR kinase inhibition assay (mTORC IC50); details: in vitro
T2 construct: purchased Invitrogen
Method: The cross-activity or lack thereof of one or more compounds of the present invention against mTor can be measured according to any procedures known in the art or methods disclosed below. The compounds described herein can be tested against recombinant mTOR (Invitrogen) in an assay containing 50 mM HEPES, pH 7.5, 1 mM EGTA, 10 mM MgCl2, 2.5 mM, 0.01% Tween, 10 μM ATP (2.5 μCi of […]), and 3 μg/mL BSA. Rat recombinant PHAS-1/4EBP1 (Calbiochem; 2 mg/mL) is used as a substrate. Reactions are terminated by spotting onto nitrocellulose, which is washed with 1M NaCl/1% phosphoric acid (approximately 6 times, 5-10 minutes each). Sheets are dried and the transferred radioactivity quantitated by phosphorimaging.
Other kits or systems for assaying mTOR activity are commercially available. For instance, one can use Invitrogen's LanthaScreen™ Kinase assay to test the inhibitors of mTOR disclosed herein. This assay is a time resolved FRET platform that measures the phosphorylation of GFP labeled 4EBP1 by mTOR kinase. The kinase reaction is performed in a white 384 well microtitre plate. The total reaction volume is 20 ul per well and the reaction buffer composition is 50 mM HEPES pH7.5, 0.01% Polysorbate 20, 1 mM EGTA, 10 mM MnCl2, and 2 mM DTT. In the first step, each well receives 2 ul of test compound in 20% dimethylsulphoxide resulting in a 2% DMSO final concentration. Next, 8 ul of mTOR diluted in reaction buffer is added per well for a 60 ng/ml final concentration. To start the reaction, 10 ul of an ATP/GFP-4EBP1 mixture (diluted in reaction buffer) is added per well for a final concentration of 10 μM ATP and 0.5 μM GFP-4EBP1. The plate is sealed and incubated for 1 hour at room temperature. The reaction is stopped by adding 10 ul per well of a Tb-anti-pT46 4EBP1 antibody/EDTA mixture (diluted in TR-FRET buffer) for a final concentration of 1.3 nM antibody and 6.7 mM EDTA. The plate is sealed, incubated for 1 hour at room temperature, and then read on a plate reader set up for LanthaScreen™ TR-FRET. Data is analyzed and IC50s are generated using GraphPad Prism 5.

PI3K δ = target: T3, PI3K δ (Homo sapiens, UniProt O00329); assay: PI 3-Kinase HTRF inhibition assay, PI3K δ; details: in vitro; read-out: PI3K δ IC50
T3 construct: purchased Upstate
T3 sequence (O00329 whole entry): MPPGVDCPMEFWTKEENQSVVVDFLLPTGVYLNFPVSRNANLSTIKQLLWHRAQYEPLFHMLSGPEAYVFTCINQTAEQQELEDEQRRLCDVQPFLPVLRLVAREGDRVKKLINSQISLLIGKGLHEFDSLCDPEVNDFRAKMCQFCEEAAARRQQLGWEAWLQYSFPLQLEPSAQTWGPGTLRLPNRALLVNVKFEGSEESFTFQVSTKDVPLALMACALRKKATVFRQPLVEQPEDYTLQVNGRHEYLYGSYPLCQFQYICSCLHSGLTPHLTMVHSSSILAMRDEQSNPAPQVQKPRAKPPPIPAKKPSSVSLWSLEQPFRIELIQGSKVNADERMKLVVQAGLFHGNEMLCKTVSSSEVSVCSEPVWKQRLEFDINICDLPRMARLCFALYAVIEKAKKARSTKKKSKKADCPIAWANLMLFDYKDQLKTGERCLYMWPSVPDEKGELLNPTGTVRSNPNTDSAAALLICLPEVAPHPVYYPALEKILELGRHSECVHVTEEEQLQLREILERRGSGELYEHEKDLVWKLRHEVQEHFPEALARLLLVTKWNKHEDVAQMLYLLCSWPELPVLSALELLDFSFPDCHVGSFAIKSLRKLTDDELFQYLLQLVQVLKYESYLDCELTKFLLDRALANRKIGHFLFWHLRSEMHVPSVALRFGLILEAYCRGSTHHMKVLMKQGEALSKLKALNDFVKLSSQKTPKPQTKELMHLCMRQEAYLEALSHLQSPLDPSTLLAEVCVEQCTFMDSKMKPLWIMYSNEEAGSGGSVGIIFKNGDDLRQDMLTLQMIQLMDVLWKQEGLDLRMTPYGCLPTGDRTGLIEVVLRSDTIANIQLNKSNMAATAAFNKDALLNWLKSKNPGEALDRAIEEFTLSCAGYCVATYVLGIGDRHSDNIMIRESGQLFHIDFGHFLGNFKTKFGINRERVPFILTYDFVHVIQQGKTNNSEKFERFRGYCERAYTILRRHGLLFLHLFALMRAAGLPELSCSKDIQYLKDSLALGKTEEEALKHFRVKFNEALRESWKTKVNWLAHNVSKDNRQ
T3 sequence (P27986 whole entry partner): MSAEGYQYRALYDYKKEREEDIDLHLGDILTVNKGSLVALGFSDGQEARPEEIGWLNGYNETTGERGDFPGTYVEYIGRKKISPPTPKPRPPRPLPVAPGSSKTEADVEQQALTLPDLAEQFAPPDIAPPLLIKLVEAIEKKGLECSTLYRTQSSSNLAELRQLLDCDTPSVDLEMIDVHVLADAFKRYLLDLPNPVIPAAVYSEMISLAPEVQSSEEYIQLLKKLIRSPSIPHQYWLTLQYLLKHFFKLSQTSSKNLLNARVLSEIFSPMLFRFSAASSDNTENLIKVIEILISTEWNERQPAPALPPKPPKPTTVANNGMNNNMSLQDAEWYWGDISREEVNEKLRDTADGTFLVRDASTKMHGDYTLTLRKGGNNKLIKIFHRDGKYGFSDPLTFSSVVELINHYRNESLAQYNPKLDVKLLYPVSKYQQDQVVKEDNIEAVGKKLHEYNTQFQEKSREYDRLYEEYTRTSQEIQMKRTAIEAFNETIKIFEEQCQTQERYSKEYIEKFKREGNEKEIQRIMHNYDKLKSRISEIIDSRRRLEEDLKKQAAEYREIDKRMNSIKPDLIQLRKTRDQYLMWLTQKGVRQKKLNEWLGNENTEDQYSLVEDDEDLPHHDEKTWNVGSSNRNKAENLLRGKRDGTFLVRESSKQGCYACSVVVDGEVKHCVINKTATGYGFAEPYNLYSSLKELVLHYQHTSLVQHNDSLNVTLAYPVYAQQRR
Method: (§1) Commercial kits or systems for assaying PI3-K activities are available. The commercially available kits or systems can be used to screen for inhibitors and/or agonists of PI3-Ks including but not limited to PI 3-Kinase α, β, δ, and γ. An exemplary system is PI 3-Kinase (human) HTRF™ Assay from Upstate. […] Briefly, the assay is a time resolved FRET assay that indirectly measures PIP3 product formed by the activity of a PI3-K. The kinase reaction is performed in a microtitre plate (e.g., a 384 well microtitre plate). The total reaction volume is approximately 20 ul per well. In the first step, each well receives 2 ul of test compound in 20% dimethylsulphoxide resulting in a 2% DMSO final concentration. Next, approximately 14.5 ul of a kinase/PIP2 mixture (diluted in 1× reaction buffer) is added per well for a final concentration of 0.25-0.3 ug/ml kinase and 10 μM PIP2. The plate is scaled and incubated for 15 minutes at room temperature. To start the reaction, 3.5 ul of ATP (diluted in 1× reaction buffer) is added per well for a final concentration of 10 μM ATP. The plate is sealed and incubated for 1 hour at room temperature. The reaction is stopped by adding 5 ul of Stop Solution per well and then 5 ul of Detection Mix is added per well. The plate is sealed, incubated for 1 hour at room temperature, and then read on an appropriate plate reader. Data is analyzed and IC50s are generated using GraphPad Prism 5. For PI3K α, β, δ, and γ, the nM concentration of inhibitor to reach IC50 is provided. […] Similar assays, and others known in the art, can be used to measure the percent inhibition of other kinases, including but not limited to PI3K class II kinases, phosphoinositide 4 kinases (PI4K), and phosphoinositide 5 kinases (PI5K).

PI3K α = target: T4, PI3K α (Homo sapiens, UniProt P42336); assay: PI 3-Kinase HTRF inhibition assay, PI3K α; details: in vitro; read-out: PI3K α IC50
T4 construct: purchased Upstate
T4 sequence (P42336 whole entry): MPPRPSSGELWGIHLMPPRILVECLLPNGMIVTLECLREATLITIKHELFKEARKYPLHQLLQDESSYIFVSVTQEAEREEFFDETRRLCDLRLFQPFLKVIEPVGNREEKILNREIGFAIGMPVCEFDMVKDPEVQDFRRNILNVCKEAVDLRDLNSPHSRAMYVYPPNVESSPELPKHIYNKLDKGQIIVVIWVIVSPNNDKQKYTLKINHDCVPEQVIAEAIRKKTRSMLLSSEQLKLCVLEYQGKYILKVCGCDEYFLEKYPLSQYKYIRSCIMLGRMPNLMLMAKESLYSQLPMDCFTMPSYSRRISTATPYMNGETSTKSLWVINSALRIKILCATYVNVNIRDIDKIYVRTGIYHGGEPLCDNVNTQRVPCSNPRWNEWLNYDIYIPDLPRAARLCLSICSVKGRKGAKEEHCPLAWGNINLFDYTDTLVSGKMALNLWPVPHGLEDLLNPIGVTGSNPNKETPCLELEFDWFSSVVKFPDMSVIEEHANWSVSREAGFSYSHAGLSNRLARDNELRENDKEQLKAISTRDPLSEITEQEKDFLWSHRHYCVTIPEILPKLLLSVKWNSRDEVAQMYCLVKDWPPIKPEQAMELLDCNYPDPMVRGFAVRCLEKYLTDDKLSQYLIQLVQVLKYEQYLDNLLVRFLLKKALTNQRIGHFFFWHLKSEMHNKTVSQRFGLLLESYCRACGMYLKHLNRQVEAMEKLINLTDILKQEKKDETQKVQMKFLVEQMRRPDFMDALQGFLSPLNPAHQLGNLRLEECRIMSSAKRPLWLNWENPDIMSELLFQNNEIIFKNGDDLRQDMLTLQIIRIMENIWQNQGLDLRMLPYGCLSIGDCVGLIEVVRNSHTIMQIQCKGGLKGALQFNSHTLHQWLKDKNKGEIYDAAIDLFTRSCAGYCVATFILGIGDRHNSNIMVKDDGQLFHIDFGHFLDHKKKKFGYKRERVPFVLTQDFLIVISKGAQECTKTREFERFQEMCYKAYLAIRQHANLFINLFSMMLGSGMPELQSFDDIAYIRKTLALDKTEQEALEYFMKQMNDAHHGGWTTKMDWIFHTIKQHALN
T4 sequence (P27986 whole entry partner): as the sequence (P27986 whole entry partner) above
Method: as §1

PI3K β = target: T5, PI3K β (Homo sapiens, UniProt P42338); assay: PI 3-Kinase HTRF inhibition assay, PI3K β; details: in vitro
T5 construct: purchased Upstate
T5 sequence (P42338 whole entry): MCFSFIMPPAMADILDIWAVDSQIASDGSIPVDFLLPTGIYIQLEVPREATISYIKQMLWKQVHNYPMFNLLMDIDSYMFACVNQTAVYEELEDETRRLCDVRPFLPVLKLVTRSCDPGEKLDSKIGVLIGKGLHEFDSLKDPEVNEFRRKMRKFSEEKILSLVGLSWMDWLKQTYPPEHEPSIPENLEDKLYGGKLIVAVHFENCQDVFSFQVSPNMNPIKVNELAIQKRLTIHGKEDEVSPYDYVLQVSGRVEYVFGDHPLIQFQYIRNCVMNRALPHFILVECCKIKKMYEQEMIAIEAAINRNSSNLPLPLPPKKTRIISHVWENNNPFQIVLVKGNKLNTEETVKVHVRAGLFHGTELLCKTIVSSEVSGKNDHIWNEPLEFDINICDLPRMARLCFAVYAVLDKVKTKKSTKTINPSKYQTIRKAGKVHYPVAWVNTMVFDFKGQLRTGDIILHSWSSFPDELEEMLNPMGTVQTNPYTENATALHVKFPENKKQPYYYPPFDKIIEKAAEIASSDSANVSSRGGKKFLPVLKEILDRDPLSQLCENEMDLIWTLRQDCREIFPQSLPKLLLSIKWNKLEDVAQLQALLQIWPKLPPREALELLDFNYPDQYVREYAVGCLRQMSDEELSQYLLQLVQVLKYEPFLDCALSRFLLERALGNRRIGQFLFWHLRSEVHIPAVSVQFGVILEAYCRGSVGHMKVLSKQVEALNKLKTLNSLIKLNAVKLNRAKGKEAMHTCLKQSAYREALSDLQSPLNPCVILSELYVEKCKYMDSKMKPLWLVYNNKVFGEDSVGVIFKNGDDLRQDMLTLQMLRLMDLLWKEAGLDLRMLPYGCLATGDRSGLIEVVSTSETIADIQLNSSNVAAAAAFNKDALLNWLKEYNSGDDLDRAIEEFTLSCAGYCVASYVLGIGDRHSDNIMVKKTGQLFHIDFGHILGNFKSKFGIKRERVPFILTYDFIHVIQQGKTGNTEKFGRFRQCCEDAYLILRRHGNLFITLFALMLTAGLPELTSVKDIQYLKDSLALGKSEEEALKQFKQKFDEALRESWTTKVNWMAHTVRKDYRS
T5 sequence (P27986 whole entry partner): as the sequence (P27986 whole entry partner) above
Method: as §1

T1 sequence (P48736 whole entry): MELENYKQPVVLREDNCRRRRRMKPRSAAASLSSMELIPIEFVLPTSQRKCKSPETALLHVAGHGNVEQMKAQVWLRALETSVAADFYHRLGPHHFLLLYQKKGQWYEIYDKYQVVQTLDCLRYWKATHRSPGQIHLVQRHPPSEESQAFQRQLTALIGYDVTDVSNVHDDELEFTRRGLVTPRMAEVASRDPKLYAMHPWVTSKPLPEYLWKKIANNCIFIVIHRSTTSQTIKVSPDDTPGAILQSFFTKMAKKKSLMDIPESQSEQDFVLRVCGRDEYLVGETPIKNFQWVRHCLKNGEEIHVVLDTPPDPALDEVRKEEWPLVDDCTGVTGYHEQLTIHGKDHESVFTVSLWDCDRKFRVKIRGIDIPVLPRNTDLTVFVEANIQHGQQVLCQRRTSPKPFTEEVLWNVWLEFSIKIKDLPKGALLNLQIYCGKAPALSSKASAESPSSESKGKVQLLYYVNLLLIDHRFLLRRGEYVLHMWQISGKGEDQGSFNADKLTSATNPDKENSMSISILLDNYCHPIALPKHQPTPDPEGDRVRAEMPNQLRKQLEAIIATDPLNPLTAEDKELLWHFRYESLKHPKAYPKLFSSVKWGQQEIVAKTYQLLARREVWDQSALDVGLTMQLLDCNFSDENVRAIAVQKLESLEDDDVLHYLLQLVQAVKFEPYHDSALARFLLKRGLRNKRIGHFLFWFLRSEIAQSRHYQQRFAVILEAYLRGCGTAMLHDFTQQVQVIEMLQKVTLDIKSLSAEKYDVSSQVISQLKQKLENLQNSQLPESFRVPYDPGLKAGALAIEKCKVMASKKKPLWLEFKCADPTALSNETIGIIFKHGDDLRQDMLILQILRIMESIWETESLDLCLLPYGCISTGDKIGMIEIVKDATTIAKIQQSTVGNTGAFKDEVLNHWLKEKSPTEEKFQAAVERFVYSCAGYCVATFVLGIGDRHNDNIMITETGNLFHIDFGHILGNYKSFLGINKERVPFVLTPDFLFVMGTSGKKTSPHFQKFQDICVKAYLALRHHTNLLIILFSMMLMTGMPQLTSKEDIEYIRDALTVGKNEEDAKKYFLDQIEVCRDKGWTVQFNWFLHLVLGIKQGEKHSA

SMILES	IC50 (PI3K γ) [µM]	IC50 (mTOR C) [µM]	IC50 (PI3K δ) [µM]	IC50 (PI3K α) [nM]	IC50 (PI3K β) [µM]
Nc1nc2cc(-c3ccc4ncc(N5C6CCC5COC6)nc4n3)ccc2o1 [Compound 19]	< 0.1	> 10	> 10	< 100	> 10
CN1CC2CN(c3cnc4ccc(-c5ccc6oc(N)nc6c5)nc4n3)CC2C1 (stereo not shown) [Compound 78]	< 10	> 10	< 1	< 100	< 1
CN1CC2CN(c3cnc4ccc(-c5ccc6oc(N)nc6c5)nc4c3)CC2C1 (stereo not shown) [Compound 79]	< 1	> 10	< 1	< 100	< 1
CN1CCN(C2CN(c3cnc4ccc(-c5ccc6oc(N)nc6c5)nc4c3)C2)CC1(C)C [Compound 83]	< 1	–	< 0.1	< 100	< 1
CN1CCN(C2CN(c3ccc4ncc(-c5ccc6oc(N)nc6c5)cc4n3)C2)CC1 [Compound 84]	> 10	–	> 10	< 10000	> 10
CC(C)N1CCN(C2CN(c3cnc4ccc(-c5ccc6nc(N)[nH]c6c5)nc4c3)C2)CC1 [Compound 85]	> 10	–	> 10	< 100	> 10
C[C@@H]1CN(C2CN(c3cnc4ccc(-c5ccc6nc(N)[nH]c6c5)nc4c3)C2)CCN1C [Compound 86]	> 10	–	> 10	< 100	> 10
CCN1CCN(C2CN(c3cnc4ccc(-c5ccc6nc(N)[nH]c6c5)nc4c3)C2)CC1 [Compound 87]	> 10	–	> 10	< 100	> 10
CN1CCN(C2CN(c3cnc4ccc(-c5ccc6nc(N)[nH]c6c5)nc4c3)C2)CC1 [Compound 88]	> 10	–	> 10	< 100	> 10
C[C@H]1CN(C2CN(c3cnc4ccc(-c5ccc6nc(N)[nH]c6c5)nc4c3)C2)CCN1C [Compound 89]	> 10	–	> 10	< 100	> 10
